Measurements taken from patent US20260240817A1, “COMPOSITIONS AND METHODS FOR TREATING CHARCOT-MARIE-TOOTH DISEASE” (priority 2023, published 2026).
Entries after “also recorded” stand apart in the source; their conditions may differ.

Experiments:
[1] = test system: CMT2D Gars^P278KY mice; assay: In situ force and CMAP of triceps surae on sciatic nerve stimulation, CMT2D model; type: in vivo, mouse
Method: CMT2D Gars^P278KY mice (Jackson laboratories, stock 17540) were used (Spauling et al. 2016). All handling and use of animals complied with Danish Animal Welfare regulations (licence 2017-15-0201-01223). Animals were fed ad libitum, kept at 12 h light/dark condition at 21° C. and observed daily.
(§1) Mice were removed from their housing on the day of experiment and sedated with isoflurane (2-3%) dissolved in oxygen (supplied in a mask placed around the mouth and nose (Microvent 1, Hallowell EMC)) and placed on a heated mat. Sedation was ensured by testing the reflexes of the front limbs by tweezing them with a set of tweezers. Temperature was monitored by rectal probe. When fully sedated the Achilles tendon was blotted, tied by cotton string to a force transducer (Grass instruments) and cut distal to the cotton string, to allow recording of force from muscle of the lower limb. To record compound muscle action potentials (CMAP), two small needle electrodes were placed subcutaneously, one over the belly of the triceps surae muscle, and one at the distal part close to the tendon. To allow stimulation of the sciatic nerve, two stimulation needle electrodes were inserted at the base of the tail, one on each side of the sciatic nerve. Optimal placement was tested by applying short pulses via the stimulation electrodes, and assessing the resulting force and CMAP. When a stable response was obtained, electrodes were secured with tape, and the animal was allowed to rest for 10 minutes.
The single fibre measurements of EPP was performed in animals aged 8 to 15 weeks, whilst the in situ stimulation protocol part was performed in animals 37 weeks of age, from the same litter.
(§2) After optimal set-up and rest, the following stimulation paradigm was initiated: Every 30 seconds the sciatic nerve was stimulated at 8-12 Volt by pulses of 0.1 ms duration at 12 Hz with 10 pulses (12 Hz protocol). This was repeated 9 times after which a single stimulation at 120 Hz for 1 s was made. The 12 Hz protocol was then again repeated 9 times followed a stimulation at 30 Hz for 1 s. This cycle was repeated throughout the experiments providing recordings of force and CMAP at 120 Hz and 30 Hz every 10th minute interspaced by 12 Hz protocols every 30 second. When 3 consecutive measurements of 120 Hz were similar, NMD670 was administered I.V. (8 mg/kg dissolved in phosphate buffered saline at 2 mg/mL), while the stimulation paradigm continued. Animals were monitored for 6 hours after injection of NMD670. Force and CMAP were measured and digitalized by an AD converter (CED, UK,) and analysed in “Signal 6” (Cambridge Electronic Designs, UK). When analysing force traces, the peak amplitude of each twitch peak at 12 and 30 Hz was measured, and the baseline subtracted. The force at 30 and 120 Hz was also quantified as a force-time integral, or area under the curve (AUC). The CMAP recordings were quantified as the peak-to-peak levels for each CMAP in every train. The peak heights or CMAP levels were then expressed as ratios relative to the first CMAP peak in the train e.g. forth peak relative to 1st peak (T4/T1) and 10th peak relative to 1st peak (T10/T1).

[2] = test system: WT mice; assay: In situ force and CMAP of triceps surae on sciatic nerve stimulation, wild type; type: in vivo, mouse
From the text: as §1, §2

[3] = Tablet dissolution (USP2 paddles, pH 6.8); type: physicochemical; details: immediate release film-coated tablets; after a maximum of 60 minutes; USP2 paddles 75 RPM, 37° C., 900 ml pH 6.8
Method: Tablet dissolution was determined as follows. […] Dissolution Media pH 6.8 was prepared by dissolving 27.3g Na2HPO4·2H2O and 4.9 g Citric Acid in 1 L Milli-Q water. The pH was measured and adjusted if necessary to pH 6.8. 900 mL of dissolution media pH 6.8 was accurately transferred into each dissolution vessel. The apparatus was assembled, and the dissolution media was heated to 37° C.±0.5° C. The T=0 point was extracted from each vessel prior to dropping the tablets into the dissolution vessels. One tablet was gently dropped into each dissolution vessel, and rotation of the paddle was immediately started. Samples were taken that the sample extraction timepoints and analysed using the HPLC method.

[4] = test system: mouse model of CMT1A; assay: In vivo hind leg force (torque) on sciatic nerve stimulation in mouse model of CMT1A
Method: Male and female mice (Jacson Laboratory Strain #:030052) approx. 6-7 months of age at time of study start were used. These genetically modified mice are used as a disease model to study Charcot Marie Tooth (CMT) disease type 1A (CMT1A).
The sodium salt of NMD670 was dissolved in phosphate buffered saline (PBS) to a dose volume of 1 mg/mL. The entire amount of dose-solution was then transferred to a vial labelled A or B (for blinding purposes). The vehicle control solution was PBS and this was transferred to a vial labelled A or B (for blinding purposes). Compound was dosed IP at a volume of 10 mL/kg, from a 1 mg/mL dose solution.
(§3) Animal was sedated (isoflurane inhalation 2% in ambient air) and prepared for assessment of force production from the hind leg, via electrical stimulation of the sciatic nerve in a static position. Stimulation electrodes were inserted at the sciatic nerve, and test pulses of low current amplitude were used to adjust position of all electrodes until a stable reproducible signal was achieved twice. The force resulting from supramaximal electrical stimulation of the supplying motor nerve was recorded from a foot-pad moved by the foot/paw of the animal. See table Table 21 for detailed stimulation protocol.
NMD670 or vehicle was administered by IP injection at a volume of 10 mL/kg from a 1 mg/mL dose solution while sedated in the EMG measurement set up. 10 to 15 minutes was allowed to elapse before next step was initiated.
as §3, with “The animal remained” for “Animal was”, “sedated” for “sedated (isoflurane inhalation 2% in ambient air)”, “See” for “See table”
Each mouse was tested prior to intervention with test article, and then tested after IP injection of 10 mg/kg NMD670 or vehicle (PBS). A washout period was then allowed (48 hours), and the mouse was subjected to the same test, but receiving the opposite treatment to that on the first day. All mice thus received both vehicle and NMD670, in a randomized order (FIG. 6).

[5] = Gars^P278KY mice, after injection of NMD670
[6] = Gars^P278KY mice, after injection of NMD670, not fully normalized
[7] = Gars^P278KY, after 8 mg/kg i.v. (before 100)
[8] = Wild Type, after NMD670 (before 100)

## C[C@H](Oc1ccc(Br)cc1-c1ccon1)C(=O)O [NMD670, (2S)-2-[4-bromo-2-(1,2-oxazol-3-yl)phenoxy]propanoic acid]
[1]; Gars^P278KY mice, after 8 mg/kg NMD670 i.v., 12, 30, 120 Hz stimulation
  force, CMAP and relative force peaks (T4 or T10/T1): less decrease in amplitudes; also recorded: improved; also recorded: increase
[1]; [5]
  T4/T1 and T10/T1 ratios of twitch force: normalization
  increase in absolute twitch force: 25%
[1]; [6]
  increase of force during 30 Hz stimulation: 21%
  increase of force during 120 Hz stimulation: 30%
[1]; Gars^P278KY, after 8 mg/kg NMD670 i.v. (before 6.06 ± 0.8)
  Twitch force: 7.5 ± 1.1 g
[1]; Gars^P278KY, after 8 mg/kg i.v. (before 0.42 ± 0.05)
  Twitch force relative to BW: 0.51 ± 0.05
[1]; Gars^P278KY, after 8 mg/kg i.v. (before 63.5 ± 4.91)
  12 Hz Ratios CMAP T10/T1: 76.1 ± 4.37
[1]; Gars^P278KY, after 8 mg/kg i.v. (before 75.5 ± 2.8)
  12 Hz Ratios CMAP T4/T1: 86.3 ± 2.44
[1]; Gars^P278KY, after 8 mg/kg i.v. (before 82.0 ± 6.0)
  Force 12 Hz Ratios T10/T1: 93.8 ± 5.7%
[1]; Gars^P278KY, after 8 mg/kg i.v. (before 82.4 ± 3.3)
  EMG (CMAP) 30 Hz 5/1: 95.3 ± 2.4
[1]; Gars^P278KY, after 8 mg/kg i.v. (before 83.8 ± 13.9)
  EMG (CMAP) 120 Hz 5/1: 102.0 ± 4.3
[1]; Gars^P278KY, after 8 mg/kg i.v. (before 88.2 ± 5.1)
  Force 12 Hz Ratios T4/T1: 97.8 ± 5.0%
[1]; [7]
  Force 30 Hz AUC (% of initial): 124.1 ± 3.7 % of initial
  Force 120 Hz AUC (% of initial): 136.7 ± 29.9 % of initial
[2]; WT mice after injection of NMD670, 30 and 80 Hz stimulations as printed
  increase of ratio of the 5th and 1st CMAP peaks: not significantly different
[2]; Wild Type, after NMD670 (before 1.08 ± 0.01)
  Twitch force relative to BW: 1.06 ± 0.02
[2]; Wild Type, after NMD670 (before 21.6 ± 1.3)
  Twitch force: 22.2 ± 2.3 g
[2]; Wild Type, after NMD670 (before 96.6 ± 1.3)
  Force 12 Hz Ratios T4/T1: 97.7 ± 06%
[2]; Wild Type, after NMD670 (before 97.3 ± 0.6)
  Force 12 Hz Ratios T10/T1: 99.2 ± 0.3%
[2]; [8]
  Force 30 Hz AUC (% of initial): 102.9 ± 1.9 % of initial
  Force 120 Hz AUC (% of initial): 100.7 ± 2.7 % of initial
[2]; Wild Type, after NMD670 (before 102.2 ± 0.9)
  12 Hz Ratios CMAP T4/T1: 103.1 ± 0.2
[2]; Wild Type, after NMD670 (before 102.8 ± 0.1)
  12 Hz Ratios CMAP T10/T1: 102.8 ± 2.2
[2]; Wild Type, after NMD670 (before 105.8 ± 3.1)
  EMG (CMAP) 30 Hz 5/1: 119.0 ± 11.6
[2]; Wild Type, after NMD670 (before 110.2 ± 6.5)
  EMG (CMAP) 120 Hz 5/1: 123.5 ± 20.6
[3]
  NMD670 released from the tablets: Not less than 80%
[4]; 10 mg/kg IP, compared to Vehicle
  ability to sustain force during stimulated contraction: markedly improved
[4]; 10 mg/kg intra peritoneally, compared to vehicle treatment
  stimulated force: significantly increase
[4]; 1 Hz, 10 mg/kg IP, vehicle −0.37
  Change in Torque (peak stimulated force, before to after treatment): 0.95 mN*m
[4]; 15 Hz, 10 mg/kg IP, vehicle −0.46
  Change in Torque (peak stimulated force, before to after treatment): 0.59 mN*m
[4]; 30 Hz, 10 mg/kg IP, vehicle −0.95
  Change in Torque (peak stimulated force, before to after treatment): 0.49 mN*m
[4]; 60 Hz, 10 mg/kg IP
  increase of peak muscle force: 1.13 mNm
[4]; 60 Hz, 10 mg/kg IP, vehicle −1.49
  Change in Torque (peak stimulated force, before to after treatment): 1.13 mN*m
[4]; 60 Hz, 10 mg/kg IP, vehicle −1.5
  Change in Fade (before to after treatment): 2.2%
[4]; 120 Hz, 10 mg/kg IP
  increase of peak muscle force: 1.67 mNm
[4]; 120 Hz, 10 mg/kg IP, vehicle −1.36
  Change in Torque (peak stimulated force, before to after treatment): 1.67 mN*m
[4]; 120 Hz, 10 mg/kg IP, vehicle −14.1
  Change in Fade (before to after treatment): 8.1%
[4]; 200 Hz, 10 mg/kg IP
  improvement of ability to sustain force: 18.3 % point
[4]; 200 Hz, 10 mg/kg IP, vehicle −1.42
  Change in Torque (peak stimulated force, before to after treatment): 1.90 mN*m
[4]; 200 Hz, 10 mg/kg IP, vehicle −24.1
  Change in Fade (before to after treatment): 18.3%
